Data taken from patent publication US20130130306A1, “ZN (II) BASED COLORIMETRIC SENSOR AND PROCESS FOR THE PREPARATION THEREOF” (COUNCIL OF SCIENTIFIC & INDUSTRIAL RESEARCH, priority 2010, published 2013).
“Also recorded” adds a separate entry of the source.

Tests used:
[1] = system: living microbes (eukaryotes and prokaryotes); assay: Toxicity and viability of cells after staining; assay type: cell-based
Text: We also explored the possibility of using L.Zn/L.Zn.α-CD as the staining agent for prokaryotes (Gram +ve and Gram −ve bacterial cells). […] As expected stained cells for Gram +ve bacteria appeared longer as compared to those of the stained Gram −ve bacteria. The difference in the staining intensity for two different bacteria with the L.Zn.α-CD (Scheme 2) could be much better understood after going into the depth of cell biology of each bacterial cells and the detailed biochemistry involved while staining; besides, difference in cell structure and cell wall composition of the respective bacteria. […] Changes on the cell surfaces on binding of the dye, L.Zn (Scheme 1, Formula 1A) were also evident from the SEM images recorded for Gram −ve and Gram +ve bacteria, in absence and presence of staining agent (FIGS. 11C to 11F). Difference in the contrasts in the SEM images of the sample surfaces also signifies the non-homogeneous chemical nature of the sample surface. Relatively brighter cell exterior for Gram −ve bacteria, as compared to the Gram +ve one indicates the accumulation of higher negative charge on the extra-cellular surface. […] The growth profile of Eukaryotic Yeast cells (Saccharomyces cerevisiae) and Prokaryotic bacterial cells ([…]) in an aqueous culture medium in absence and presence of L.Zn (Scheme 1, Formula 1A) are shown in FIG. 12. Change in absorbance (at λmax=600 nm) vs time (t) was plotted up to 30 h; as no appreciable change in growth was observed thereafter. […] FIGS. 12a, 12c and 12e show the actual growth curve of Saccharomyces cerevisiae, Pseudomonas fluorescence and Bacillus megaterium, respectively with time. While, FIGS. 12b, 12d and 12f show relative build up of ATP in cytoplasm with time for Saccharomyces cerevisiae, Pseudomonas fluorescence and Bacillus megaterium, respectively in presence of L.Zn (Scheme 1, Formula 1A) (D1) and L.Zn.α-CD (Scheme 2) (D2). […]

[2] = UV-vis spectral response and spectrophotometric titration with CTP; assay type: binding
Description: In order to examine the binding behaviour of the Zn-complex (L.Zn) (Scheme 1, Formula 1A) to various important anions (like ATP, CTP, ADP, AMP, PPi, H2PO4^−, SO4^2−, CH3CO2^−, I^−, Br^−, Cl^− and F^−) the following experiment was conducted. A solution (˜21 mM) for of sodium salts of ATP, CTP, ADP, AMP, PPi, H2PO4^−, SO4^−, CH3CO2^−, I^−, Br^−, Cl^−, and F^− were prepared using respective salt in 10 mM HEPES buffer solutions (pH 7.2) and was stored for use. Further, a solution (44.35 μM) of the compound L.Zn (Scheme 1, Formula 1A) was prepared using doubly-distilled and deionized water and stored. These stored solutions were used on the day of preparation of the solution for experiment. […]
A solution of L.Zn (Scheme 1, Formula 1A) (8.87 μM) in aqueous medium was treated with excess amount of ˜500 μM of different phosphate anions like H2PO4^−, PPi, AMP, ADP, ATP and CTP. […] Thus L.Zn (Scheme 1, Formula 1A) can bind ATP selectively among various phosphate anions and the color change associated with the binding of ATP can be detected through naked eye (FIG. 2).
A 1.0 mL of stored solution L.Zn (Scheme 1, Formula 1A) ([L.Zn]=8.95 μM) was put in a test-tube, such that, the final concentration of the L.Zn solution was 1.79 μM to this varying amount of CTP (0.1-4 mL of the stored CTP solution (12.71 mM) was added. Resulting solution was then diluted by addition of a 10 mM HEPES buffer solution (N-(2-hydroxyethyl)-piperazine-N′-2-ethanesulfonic acid) (pH 7.2) maintaining total volume of the resultant aliquot of 5 mL, which was used for spectrophotometric measurements by putting a quartz spectrophotometric cell (3.5 mL capacity). The total spectral change was measured using a spectrophotometer (Shimadzu UV-3101 PC) after appropriate base line correction. […]

## CN(C)c1ccc(N=Nc2ccc(S(=O)(=O)N3CCCNCCNCCCNCC3)cc2)cc1.O=[N+]([O-])[O-].O=[N+]([O-])[O-].[Zn+2] [L.Zn]
[1]; after staining
  growth of stained cells in their respective media: stained cells were found to grow in their respective media
[1]; eukaryotes and prokaryotes, cell proliferation and growth after staining
  toxicity to living cells: non-toxic; also recorded: non toxic
[1]; light microscope, until 3 h
  viability of stained cells, hanging drop in concavity slide: cell growth, cell division, as well as their motility could be observed
[2]; L.Zn 8.87 μM in aqueous medium, ~500 μM anion
  color change on addition of CTP (naked eye): Slight color change
[2]; pH 7.2, L.Zn 8.87 μM, anion 17 mM
  red shift of absorption on addition of CTP: 9 nm
[2]; spectrophotometric titration, pH 7.2, 10 mM HEPES, 25° C.
  binding constant for the formation of the complex L.Zn-CTP: 220 (±+15) M^−1
